From patent US12616753B2, “HSP70 inhibitors and methods of using same” (THE WISTAR INSTITUTE, priority 2020, dated 2026)

Tests used:
[1] = tested on: CRC cell lines (SW620, HT-29, HCT 116+/−p53, RKO, and LS411N); assay: Alamar Blue cell viability assay, human CRC panel; format: cell-based; conditions: SW620, 72 hours
Experimental: FIGS. 4A-4F show AP-4-139B is efficacious as a single agent against human CRC in vitro and in vivo. FIG. 4A: Three CRC cell lines (HT-29, LS411N, and SW620) were treated with 10 μM of PET-16 or AP-4-139B for 48 hours. Cell were then subjected to viability assays using Trypan Blue exclusion. *** p<0.001. […] FIGS. 4B-4C: A panel of six CRC cell lines (SW620, HT-29, HCT 116+/−p53, RKO, and LS411N) were plated at a density of 1,000 cells per well in 96-well plates. The next day, cells were treated with the indicated inhibitors for 72 hours. Cells were then subjected to the Alamar Blue cell viability assays. Shown are representative IC50 values of an average of six technical replicates and two biological replicates. FIG. 4D: 2.5×10^6 HT-29 cells were injected subcutaneously into the right flank of NSG mice. Once tumors reached an approximate volume of 100 mm^3, mice were separated randomly into two groups: control vs. AP-4-139B. Mice were treated with 12.5 mg/kg AP-4-139B three times a week. All mice were euthanized 22 days after the start of treatment. Tumor volumes were recorded using digital calipers and using the formula v=length×width^2×0.52. *** p<0.001. n=10 mice per group. FIG. 4E: Immunohistochemistry (IHC) analysis of HT-29 xenograft tumors treated with AP-4-139B. Shown are representative images (4-6 random fields of view per condition) of Ki67 (proliferation) and Cleaved Lamin A (cell death). n=4 mice per group. Scale bar=100 μm. Respective IgG antibody was used as the negative control.

[2] = tested on: MC38 and HT-29 cells; assay: Extracellular ATP release (CellTiter-Glo); format: cell-based; conditions: MC38 cells, increasing concentrations, 3 hours
Experimental: FIG. 6A: 1×10^6 MC38 cells were injected subcutaneously into the right flank of 6-8-week-old male C57Bl/6 mice. Once tumors reached an approximate volume of 100 mm^3, mice were treated with AP-4-139B (10 mg/kg) every 48 hours. 20 days after the start of treatment, tumors were excised, weighed, minced and digested. Tumor-infiltrating and splenic conventional CD4 (cCD4) (Live CD45^+ DUMP^− CD3^+CD4^+Foxp3^−), Tregs (Live CD45^+ DUMP^− CD3^+CD4^+Foxp3^+), CD8 (Live CD45^+ DUMP^− CD3^+CD8^+) T-cells, and Dendritic Cells (Live CD45^+ DUMP^− CD3^−CD11c^+MHCII^+) numbers were assessed by flow cytometry. * p<0.05, n.s. not significant. n=8 mice per group. FIG. 6B: MC38 and HT-29 cells were treated with the indicated concentrations of AP-4-139B for either 8 or 24 hours; media was collected and subjected to WB for HMGB1. Data shown are representative of three technical replicates. FIG. 6C: MC38 and HT-29 cells were treated with the indicated concentrations of AP-4-139B for three hours and then assayed for extracellular ATP release. Each graphical representation indicates the mean±the standard deviation of three independent experiments relative to control (DMSO-treated) cells.
FIG. 6D: MC38 cells were treated with 5 μM AP-4-139B for 24 hours and subjected to flow cytometry, using Alexa488-tagged calreticulin antibody. *** p<0.001, n=4 biological replicates performed in duplicate. FIG. 6E: MC38 cells were treated with increasing concentrations of AP-4-139B, G-TPP, 17-AAG or Metformin for 3 hours and then assayed for extracellular ATP release. Three independent cultures were assayed for each treatment, and DMSO-treated cells were used as internal controls. Error bars represent standard deviation (SD).
The XF Cell Mito Stress Test was performed. Briefly, HT-29 (10,000 cells/well), IMR90 (15,000 cells/well), and 1205Lu (15,000 cells/well) were plated in Seahorse 96-well cell culture microplates, treated with the respective inhibitors for 24 hours, and subjected to the Seahorse XF Cell Mito Stress Test, according to the manufacturer's protocol (Agilent Technologies). For extracellular HMGB1 release, 1×10^6 MC38 cells were plated in 10-cm dishes. The next day, cells were treated with the indicated concentrations of AP-4-139B for 8 or 24 hours in serum-free media. Media was collected and spun down at 2,000 rpm for 5 minutes to pellet any remaining cells or debris. Media was then transferred to Amicon Ultra 15, 10K tubes and spun down at 4,000 rpm for 45 minutes, according to the manufacturer's protocol. […] For extracellular ATP release, ATP was measured using the CellTiter-Glo Kit (Promega catalog #G7570). […] 10 μl of CellTiter-Glo Reaction Mix was then mixed with 10 μl of culture media; the luminescence signal was detected using a luminometer.

[3] = biological target: T1, full length human HSP70 (Homo sapiens, UniProt P0DMV8); assay: HSP70 mediated ATPase assay (Transcreener ADP-FI); format: biochemical
T1 construct: Five μL of 30 nM full length human HSP70 in assay buffer
T1 sequence (P0DMV8 whole entry): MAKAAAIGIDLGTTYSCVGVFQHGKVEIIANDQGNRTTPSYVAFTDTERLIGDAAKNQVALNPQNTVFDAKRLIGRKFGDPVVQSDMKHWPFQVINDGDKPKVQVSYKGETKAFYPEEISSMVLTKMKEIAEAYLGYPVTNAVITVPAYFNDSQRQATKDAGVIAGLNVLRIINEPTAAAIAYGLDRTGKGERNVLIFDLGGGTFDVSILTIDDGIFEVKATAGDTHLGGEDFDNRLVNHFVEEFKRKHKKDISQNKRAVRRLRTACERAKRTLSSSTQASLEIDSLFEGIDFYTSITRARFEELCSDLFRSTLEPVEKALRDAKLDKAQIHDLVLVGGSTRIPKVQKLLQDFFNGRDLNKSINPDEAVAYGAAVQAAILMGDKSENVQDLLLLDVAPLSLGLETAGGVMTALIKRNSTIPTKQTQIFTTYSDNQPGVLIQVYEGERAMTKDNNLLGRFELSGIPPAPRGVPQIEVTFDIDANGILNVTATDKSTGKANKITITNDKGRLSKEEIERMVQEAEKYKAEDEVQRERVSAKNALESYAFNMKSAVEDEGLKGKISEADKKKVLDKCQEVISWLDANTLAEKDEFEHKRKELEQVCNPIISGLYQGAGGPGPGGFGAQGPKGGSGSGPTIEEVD
Experimental: FIGS. 1A-1D show ATPase inhibition and direct binding of a novel HSP70 inhibitor. FIG. 1A: Compounds AP-3-97 and AP-4-139B are direct inhibitors of HSP70. HSP70 mediated ATPase activity was assessed using the TRANSCREENER® ADP-FI assay. Five microliters of 30 nM purified human HSP70 in assay buffer was added to test compounds for 30 minutes, followed by addition of excess ATP. After 15 minutes, reactions were stopped and fluorescence was assessed on a plate reader. Data are normalized to percent inhibition, where 100% is the value in the absence of HSP70, and 0% is the value in the presence of HSP70. Compounds shown include PET-16 (positive control) and the novel HSP70 inhibitors AP-3-97 and AP-4-139B. VY-3-277 was used as a negative control. FIG. 1B: Compound AP-4-139B binds HSP70. Whole cell extracts (WCE) from H1299 cells were incubated with 10 μM Biotin or with a Biotin-labeled variant of AP-4-139B (Biotin-AP-4-139B) for 5 hours. Biotin-AP-4-139B containing complexes were captured using NeutrAvidin resins and separated by SDS-PAGE. The Coomassie-stained protein band of approximately 70 kDa was excised and subjected to tryptic digestion and liquid chromatography-tandem mass spectrometry, and identified to be HSP70. FIG. 1C: H1299 cells were pre-treated with 10 μM of VY-3-277, PET-16, or AP-4-139B for 1 hour prior to the addition of 10 μM Biotin-AP-4-139B for 5 hours. Biotin-AP-4-139B containing complexes were captured by NeutrAvidin resins and immunoblotted using the indicated antibodies following SDS-PAGE. Whole cell extracts (WCE) were examined for the expression of HSP70 (input) and GRP75 (input) by Western blot analysis. FIG. 1D: Compound AP-4-139B directly binds purified human HSP70. […] Data were analyzed using the evaluation software from Biacore and the resulting sensograms were exported and re-plotted in GraphPad Prism.
HSP70 mediated ATPase activity was measured using the Transcreener® ADP-FI assay (BellBrook Labs). […] After 30 minutes, fluorescence at 560/620 nm was measured using the Envision plate reader. […]

[4] = biological target: N-terminal HIS tagged HSP70 (Homo sapiens, UniProt P0DMV8); assay: Small molecule binding to HSP70 using SPR (Biacore T200)
Chain of N-terminal HIS tagged HSP70 (P0DMV8 whole entry): as above
Experimental: SPR experiments were conducted using the Biacore T200. Approximately 20,000 RU of N-terminal HIS tagged HSP70 was immobilized on a multi-dentate NTA derivatized linear carboxylate sensor chip (NICH1500M, Xantec Bioanalytics). The running buffer was PBS containing 2 mM MgCl2, 0.05% Tween, and 5% DMSO. Test compounds were diluted at 20× final concentration in 100% DMSO and then diluted into running buffer without DMSO so that the DMSO concentrations in both the sample and the running buffer were similar. Flow rate was 30 μL/min, contact time for each sample concentration was 30 seconds, followed by a 60 second dissociation time. Data were analyzed using the Biacore evaluation software and the resulting sensograms exported and re-plotted in GraphPad Prism.
The next studies sought to determine whether AP-4-139B interacts directly with HSP70. To accomplish this, full-length His-tagged human HSP70 was used, and it was immobilized on a high affinity poly-Ni-NTA sensor chip for surface plasmon resonance experiments on a Biacore T200. This HSP70-loaded chip was incubated with AP-4-139B or the negative control VY-3-277. As a positive control the adenosine-derived HSP70 inhibitor Ver-155008 was used (Massey et al., Cancer Chemother Pharmacol. 2010 August; 66(3):535-45).

| SMILES | sensitivity of SW620 cells [1] | ATP release, comparison of compounds [2] | also measured |
| --- | --- | --- | --- |
| O=c1[nH]cc(F)c(=O)[nH]1 [5-FU, 5-fluoro-uracil] | highly resistant |  |  |
| C=CCNC1=C2C[C@@H](C)C[C@H](OC)[C@H](O)[C@@H](C)/C=C(\C)[C@H](OC(N)=O)[C@@H](OC)/C=C\C=C(/C)C(=O)NC(=CC1=O)C2=O [17-AAG, reference compound] |  | induced ATP release, albeit to a lesser extent |  |
| O=S(=O)(NCCCCCC[P+](c1ccccc1)(c1ccccc1)c1ccccc1)c1ccc2c(c1)oc1ccccc12 [AP-3-97, (6-(Dibenzo[b,d]furan-3-sulfonamido)hexyl)triphenylphosphonium bromide] |  |  | inhibition of HSP70 ATPase activity (in words) [3]: markedly superior potency |
| N#Cc1ccc(COC[C@H]2O[C@@H](n3c(NCc4ccc(Cl)c(Cl)c4)nc4c(N)ncnc43)[C@H](O)[C@@H]2O)cc1 [Ver-155008, reference compound] |  |  | binding to sensor chips loaded with HSP70 [4]: reproducibly bound in concentration-dependent manner |
| CN(C)C(=N)N=C(N)N [metformin, reference compound] |  | induced ATP release, albeit to a lesser extent |  |
| O=C1[O][Pt]2([NH][C@@H]3CCCC[C@H]3[NH]2)[O]C1=O [oxaliplatin] | highly resistant |  |  |
